Test results from patent US12458597B2, “Carotenoid compositions and uses thereof” (L.E.A.F. HOLDINGS GROUP LLC, priority 2018, dated 2025).

Columns and labels:
[1] = Liposomal CTC and MTC PK in mice, plasma STC by HPLC; type: in vivo; settings: mouse, single dose, slow intravenous bolus
[2] = Maximum solubility of trans-crocetin sodium in aqueous media; type: physicochemical; settings: 5% dextrose (aqueous medium), saline or isotonic; in 5% dextrose
Procedure: The ethanolic lipid solution containing HSPC, cholesterol, PEG-DSPE, with/without PGPC was added into the aqueous solution using a pipet. During this step the solution was well stirred using a magnetic stirrer. The mixing was performed at an elevated temperature (63° C.-72° C.) to ensure that the lipids are in the liquid crystalline state (as opposed to the gel state they attain at temperatures below the lipid transition temperature (Tm=51° C.-54° C.). As a result, the lipids are hydrated and formed multiple bilayer (multilamellar) vesicles (MLV) containing trans-crocetin sodium in the aqueous core. The MLVs were then downsized by extrusion as described previously.
The ethanolic lipid solution containing HSPC, cholesterol, PEG-DSPE, with/without PGPC and the trans-crocetin sodium aqueous solution were separately transferred to syringes. Two solutions were injected into a microfluidic channel and mixed while flowing through it with Precision NanoSystems' NanoAssemblr® device. The mixing was performed at an elevated temperature (63° C.-72° C.) to ensure that the lipids were in a liquid crystalline state (as opposed to the gel state that they attain at temperatures below the lipid transition temperature (Tm=51° C.-54° C.). The liposome size can be controlled by varying the ratio between lipid solution and aqueous solution, as well as the mixing flow rate.

[3] = tested on: mouse CLP sepsis model; test: CLP sepsis survival Study 1 (TP-936); type: in vivo, C57BL/6 mice; settings: CLP mice treated with saline and imipenem (control group); over 5 days
Excerpt: Male and/or female C57BL/6 mice ordered from Envigo Laboratories or the Jackson Lab (Bar Harbor, Maine) were acclimated to housing conditions and handled in accordance with Animal Use Protocol (AUP) number TP-05. The animals were acclimated for approximately 1 week prior to study start. Only animals deemed healthy were included in this study. Animals were fed irradiated Teklad Global Rodent Diet 2918 and water ad libitum. Mice were group housed 5/cage in static cages with irradiated Teklad ⅛″ corn cob bedding 7902 inside bioBubble® Clean Rooms that provide H.E.P. A filtered air into the bubble environment at 100 complete air changes per hour. The environment was controlled to a temperature range of 74°±5° F. and a humidity range of 30-70%. Treatment groups were identified by cage card. Individual mice were identified by indelible marker on the base of the tail. All procedures carried out in this experiment were conducted in compliance with the laws, regulations, and guidelines of the National Institutes of Health and with the approval of the TransPharm Animal Care and Use Committee.
On Day −1, male and/or female mice were anesthetized through use of isoflurane and brought to a surgical plane. […]
Animals were monitored continually post-surgery, at least once every 2-3 minutes for approximately 30 minutes, until the animals had recovered and were able to move about on their own. […]

[4] = Balb/c, iv, plasma over 24 hour

AUC [1, 4] | half-life [1, 4] | Cmax ([1]; Balb/c mice) | solubility [2] | SMILES | mortality [3]
210 µg·h/mL | 21 min | 360 µg/mL | 700 µg/mL | CC(/C=C/C=C(\C)C(=O)O)=C\C=C\C=C(C)\C=C\C=C(/C)C(=O)O [STC free drug, sodium trans-crocetinate] | 
 |  |  |  | C[C@@H](O)[C@H]1C(=O)N2C(C(=O)O)=C(SCCN=CN)C[C@H]12 [imipenem] | 50%
